Results as given in patent US8247211B2, “Glycopeptide antibiotics” (American Cyanamid Company, priority 2001, dated 2012).
Converted amounts (≈) assume the structure as drawn.

Experiments:
Assay in all cases: In vitro antibacterial evaluation: minimum inhibitory concentration (MIC), broth dilution method
Assay type in all cases: cell-based
[1] = tested on: Enterococcus sp.; settings: 18 hours at 35° C.
Protocol: (§1) The minimum inhibitory concentration (MIC), the lowest concentration of the antibiotic which inhibits growth of the test organism, is determined by the broth dilution method using Muller-Hinton II […] (Baltimore Biological Laboratories) following the recommendations of the National Committee for Clinical Laboratory Standards [Methods for dilution antimicrobial susceptibility tests for bacteria that grow aerobically, approved standard M7-A2, National Committee for Clinical Laboratory Standards, Villanova, Pa].
(§2) An inoculum level of 5×10^5 CFU/mL, and a range of antibiotic concentrations (64-0.06 μg/mL) is used. […] The test organisms include a spectrum of Gram-positive bacteria comprised of Staphylococcus sp., Streptococcus sp. and Enterococcus sp. These organisms include recent clinical isolates that are resistant to methicillin, penicillin and/or vancomycin.

[2] = tested on: Escherichia coli; settings: 18 hours at 35° C.
Protocol: as §1, §2

[3] = tested on: Staphylococcus sp.
Protocol: as §1, §2

[4] = tested on: Streptococcus sp.; settings: 18 hours at 35° C.
Protocol: as §1, §2

[5] = broth dilution, inoculum 5×10^5 CFU/mL

## CC(c1ccc(Cl)cc1)C1NC(=O)CNC(=O)C(CO)NC(=O)C(C(O)C2CNC(=N)N2C2OC(CO)C(O)C(O)C2O)NC(=O)C(C(O)C2CNC(=N)N2)NC(=O)C(Cc2ccc(OC3OC(CO)C(OC4OC5COC(C6CCCCC6)OC5C(O)C4O)C(O)C3O)cc2)NC1=O (stereo not drawn) [Example 193]
[1]; Enterococcus avium (GC 4558)
  MIC Enterococcus avium (GC 4558): 2 µg/mL (≈ 1.4 µM)
[1]; Enterococcus faecalis (ATCC 29212)
  MIC Enterococcus faecalis (ATCC 29212): 1 µg/mL (≈ 0.702 µM)
[1]; Enterococcus faecalis (GC 2242)
  MIC Enterococcus faecalis (GC 2242): 1 µg/mL (≈ 0.702 µM)
[1]; Enterococcus faecalis (GC 2691)
  MIC Enterococcus faecalis (GC 2691): 2 µg/mL (≈ 1.4 µM)
[1]; Enterococcus faecalis (GC 3059)
  MIC Enterococcus faecalis (GC 3059): 1 µg/mL (≈ 0.702 µM)
[1]; Enterococcus faecalis (GC 4552)
  MIC Enterococcus faecalis (GC 4552): 1 µg/mL (≈ 0.702 µM)
[1]; Enterococcus faecalis (GC 4553)
  MIC Enterococcus faecalis (GC 4553): 2 µg/mL (≈ 1.4 µM)
[1]; Enterococcus faecalis (GC 4554)
  MIC Enterococcus faecalis (GC 4554): 2 µg/mL (≈ 1.4 µM)
[1]; Enterococcus faecalis (GC 6189)
  MIC Enterococcus faecalis (GC 6189): 0.5 µg/mL (≈ 0.351 µM)
[1]; Enterococcus faecium (GC 2243)
  MIC Enterococcus faecium (GC 2243): 1 µg/mL (≈ 0.702 µM)
[1]; Enterococcus faecium (GC 4556)
  MIC Enterococcus faecium (GC 4556): 1 µg/mL (≈ 0.702 µM)
[1]; Enterococcus faecium (GC 4557)
  MIC Enterococcus faecium (GC 4557): 2 µg/mL (≈ 1.4 µM)
[1]; [5]
  MIC Enterococcus avium (GC 4558): 2 µg/mL (≈ 1.4 µM)
  MIC Enterococcus faecalis (ATCC 29212): 1 µg/mL (≈ 0.702 µM)
  MIC Enterococcus faecalis (GC 2242): 1 µg/mL (≈ 0.702 µM)
  MIC Enterococcus faecalis (GC 2691): 2 µg/mL (≈ 1.4 µM)
  MIC Enterococcus faecalis (GC 3059): 1 µg/mL (≈ 0.702 µM)
  MIC Enterococcus faecalis (GC 4552): 1 µg/mL (≈ 0.702 µM)
  MIC Enterococcus faecalis (GC 4553): 2 µg/mL (≈ 1.4 µM)
  MIC Enterococcus faecalis (GC 4554): 2 µg/mL (≈ 1.4 µM)
  MIC Enterococcus faecalis (GC 6189): 0.5 µg/mL (≈ 0.351 µM)
  MIC Enterococcus faecium (GC 2243): 1 µg/mL (≈ 0.702 µM)
  MIC Enterococcus faecium (GC 4556): 1 µg/mL (≈ 0.702 µM)
  MIC Enterococcus faecium (GC 4557): 2 µg/mL (≈ 1.4 µM)
[2]; Escherichia coli (GC 4559)
  MIC Escherichia coli (GC 4559): 32 µg/mL (≈ 22.5 µM)
[2]; Escherichia coli (GC 4560)
  MIC Escherichia coli (GC 4560): 2 µg/mL (≈ 1.4 µM)
[3]; strain ATCC 29213
  MIC Staphylococcus aureus (ATCC 29213): 0.5 µg/mL (≈ 0.351 µM)
[3]; strain GC 1131
  MIC Staphylococcus aureus (GC 1131): 1 µg/mL (≈ 0.702 µM)
[3]; strain GC 3051
  MIC Staphylococcus aureus (GC 3051): 1 µg/mL (≈ 0.702 µM)
[3]; strain GC 3053
  MIC Staphylococcus aureus (GC 3053): 0.5 µg/mL (≈ 0.351 µM)
[3]; strain GC 4541
  MIC Staphylococcus aureus (GC 4541): 0.5 µg/mL (≈ 0.351 µM)
[3]; strain GC 4542
  MIC Staphylococcus aureus (GC 4542): 0.25 µg/mL (≈ 0.176 µM)
[3]; strain GC 4543
  MIC Staphylococcus aureus-SMITH (GC 4543): 0.5 µg/mL (≈ 0.351 µM)
[3]; strain GC 4544
  MIC Staphylococcus aureus (GC 4544): 1 µg/mL (≈ 0.702 µM)
[3]; strain GC 4545
  MIC Staphylococcus aureus (GC 4545): 0.5 µg/mL (≈ 0.351 µM)
[3]; strain GC 4546
  MIC Staphylococcus haemolyticus (GC 4546): 0.5 µg/mL (≈ 0.351 µM)
[3]; strain GC 4547
  MIC Coagulase Negative Staphylococcus (GC 4547): 1 µg/mL (≈ 0.702 µM)
[3]; strain GC 4548
  MIC Coagulase Negative Staphylococcus (GC 4548): 0.25 µg/mL (≈ 0.176 µM)
[3]; strain GC 4549
  MIC Coagulase Negative Staphylococcus (GC 4549): 0.25 µg/mL (≈ 0.176 µM)
[3]; strain GC 4551
  MIC Coagulase Negative Staphylococcus (GC 4551): 0.5 µg/mL (≈ 0.351 µM)
[3]; strain GC 6257
  MIC Coagulase Negative Staphylococcus (GC 6257): 0.25 µg/mL (≈ 0.176 µM)
[4]; Streptococcus agalactiae (GC 4564)
  MIC Streptococcus agalactiae (GC 4564): <0.06 µg/mL
[4]; Streptococcus pneumoniae (ATCC 6301)
  MIC Streptococcus pneumoniae (ATCC 6301): 0.12 µg/mL (≈ 0.0843 µM)
[4]; Streptococcus pneumoniae (GC 1894)
  MIC Streptococcus pneumoniae (GC 1894): <0.06 µg/mL
[4]; Streptococcus pneumoniae (GC 4565)
  MIC Streptococcus pneumoniae (GC 4565): <0.06 µg/mL
[4]; Streptococcus pyogenes (GC 4563)
  MIC Streptococcus pyogenes (GC 4563): <0.06 µg/mL
[4]; [5]
  MIC Streptococcus agalactiae (GC 4564): <0.06 µg/mL
  MIC Streptococcus pneumoniae (ATCC 6301): 0.12 µg/mL (≈ 0.0843 µM)
  MIC Streptococcus pneumoniae (GC 1894): <0.06 µg/mL
  MIC Streptococcus pneumoniae (GC 4565): <0.06 µg/mL
  MIC Streptococcus pyogenes (GC 4563): <0.06 µg/mL
